Source: US11390646B2, “Structure-based peptide inhibitors of α-synuclein aggregation” (The Regents of the University of California, priority 2016, dated 2022)
Several values for one entry are separate records, joined by “and”; a condition that tells them apart may be missing. Identical values can stand only once. Entries after “also recorded” stand apart in the source; their conditions may differ. Ends that are not written are not given here.

Experiments:
PC12 cells = conditions: literature reference 20; cited from earlier work
[1] = test system: HEK293T cells expressing YFP-labeled A53T α-syn; test: Cell culture seeding assay: α-syn aggregated in the presence of inhibitors, mixture transfected, puncta counted; type: cell-based, human; conditions: for seeding competence of α-syn aggregated in presence of peptide (particles/puncta per well): 50 μM α-syn aggregated with 10, 5, 2, 1 fold excess (S71: equimolar and sub-stoichiometric), monitored up to 3 days
Excerpt: (§1) We tested the efficacy of the inhibitors in preventing aggregation in a cell culture model. For these assays, we utilized two HEK293T cells that stably express YFP-labeled full-length WT α-syn and A53T α-syn (Sanders D W, et al. (2014) Neuron 82(6):1271-1288). In this model, lipofectamine-mediated transfection of recombinant fibrils leads to aggregation of the endogenous YFP-labeled protein that are seen as fluorescent puncta. Additionally, these puncta increase in size and number over time. This proliferation of aggregates over time is indicative of a ‘seeding’ phenomenon whereby a small amount of amyloid fibrils induces aggregation of the endogenous protein. First we tested the parent peptide segment, NACore to check its effect on seeding. α-syn was aggregated in the presence of molar excess of NACore (FIG. 2B). The mixture was transfected in cells and puncta formation was visualized and the number of puncta were counted as particles per well. […] Next we aggregated 50 μM α-syn in the presence of 500 μM, 250 μM, 100 μM and 50 μM inhibitor corresponding to 10, 5, 2 and 1 fold excess. The mixture was then transfected in cells and aggregation was monitored over time for up to 3 days by fluorescence imaging (FIG. 2A).
(§2) HEK293T cells that stably express YFP labeled WT α-syn and A53T α-syn were a generous gift from Dr. Marc Diamond. Cells were grown in Dulbecco's modified Eagle's medium (Gibco) supplemented with 10% fetal bovine serum (HyClone), 1% penicillin/streptomycin (Gibco), and 1% glutamax (Gibco) in a humidified incubator in 37° C., 5% CO2.
(§3) 10,000 cells in 90 μL media were plated in 96 well black wall plate (Cat #3660) and allowed to adhere overnight. α-syn was transfected at a final monomer concentration of 125 nM. Lipofectamine 2000 was diluted in OptiMEM media (2.5+17.5 μL) and incubated at room temperature for 5 mins. Protein aggregates were diluted in OptiMEM media (1:20) and sonicated in a water bath sonicator for 3 mins at low pulse. Diluted lipofectamine and protein samples were then mixed 1:1 and incubated at room temperature for 20 mins and thereafter 10 μL was added to each well. All samples are added in triplicates and experiments were repeated a minimum of two times. For co-transfection of α-syn fibrils with inhibitors, the fibrils and inhibitors were diluted in OptiMEM and incubated for 3 hours followed by sonication.
(§4) Puncta formation and cell growth was measured using Celigo Imaging Cell Cytometer allowing for unbiased measurement. Wells were imaged using fluorescent GFP channel and confluence was measured using Celigo analysis software. Images of entire well were taken and particles counted by ImageJ by particle analysis. Same settings were used to analyze wells of one plate at all days. Total particles counted in each well were normalized against the confluence and reported as particles per well.

[2] = test system: HEK293T cells expressing YFP-labeled WT α-syn; test: as above; type: cell-based, human; conditions: for seeding competence of α-syn aggregated in presence of peptide (particles/puncta per well): 50 μM α-syn aggregated with 10, 5, 2, 1 fold excess (S71: equimolar and sub-stoichiometric), monitored up to 3 days
Excerpt: as §1, §2, §3, §4

[3] = test system: HEK293T cells expressing YFP-labeled A53T α-syn; test: Cell culture seeding assay: recombinant α-syn fibrils co-transfected with inhibitors; type: cell-based, human; conditions: for seeding capacity of α-syn fibrils co-transfected with peptide (particles per well normalized to buffer): 125 nM recombinant α-syn fibrils; for concentrations at which seeding was reduced: 125 nM α-syn fibrils co-transfected
Experimental: (§5) We tested the efficacy of the inhibitors to prevent seeding in the cell culture model (FIG. 3A). We transfected the α-syn fibrils along with the different inhibitors. […] S62 was effective at concentrations of 12.5 μM and 6.25 μM in both cell lines (FIG. 3E). S71 was effective at low concentrations of 1.25 μM.
as §2, §3, §4

[4] = test system: HEK293T cells expressing YFP-labeled WT α-syn; test: as above; type: cell-based, human; conditions: for seeding capacity of α-syn fibrils co-transfected with peptide (particles per well normalized to buffer): 125 nM recombinant α-syn fibrils; for concentrations at which seeding was reduced: 125 nM α-syn fibrils co-transfected
Experimental: as §5, §2, §3, §4

[5] = molecular target: T1, α-syn seeded by PD tissue-extracted filaments (Homo sapiens, UniProt P37840); test: ThT assay of α-syn aggregation seeded by PD brain tissue-extracted filaments; type: biochemical; conditions: filaments from 4 different subjects (seeds A-D)
T1 construct: Full length α-syn was purified according to published protocols; made in house; host or cells: E. coli BL21 (DE3) gold
Excerpt: We extracted insoluble protein aggregates from frozen autopsy PD brain tissues. We obtained tissues from 4 different subjects including the substantia nigra and frontal regions of one subject and temporal and frontal regions of other subjects. Using previously described protocols (Goedert et al. (1992) Neuron 8(1):159-168) that included precipitation with the ionic detergent sarkosyl, we extracted insoluble protein aggregates (FIG. 4A). All samples robustly seeded α-syn aggregation in vitro and in our cell culture model. In vitro addition of 2% seeds increased the ThT fluorescence 4 to 10 fold (FIG. 4B, 4C, 4D) along with a small decrease in the lag time. The seeded samples were then transfected in HEK cells. Consistent with the ThT assay, all seeded samples induced rapid puncta formation (FIG. 4E, 4F, 4G). Thus, fibrils extracted from PD brain tissues seeds recombinant protein, and the aggregates formed upon seeding induce rapid puncta formation in cell culture.
(§6) We tested the effect of the different inhibitors in preventing α-syn aggregation in the presence of PD extracted seeds. […] Next we tested the seeding potency of the α-syn aggregates formed in the presence of PD seeds and the different inhibitors (FIG. 6A).
Fibril formation assays were performed with 50 μM protein concentration in conditions identical to those used for aggregating proteins for seeding assay, but with the addition of ThT. All assays were carried out in black Nunc 96-well optical bottom plates (Thermo Scientific). Plates were agitated at 600 rpm in 3-mm rotation diameter in a Varioskan microplate reader (Thermo) at 37° C. Fluorescence measurements were recorded every 30 mins using λex=444 nm, λcm=482 nm, with an integration time of 200 μs.
Human frozen brain tissues were obtained from UCLA Brain Tumor Translational Resource (BTTR). Sarkosyl insoluble protein was extracted using previously described protocols. Briefly, frozen tissue was homogenized in ice cold PBS using a dounce homogenizer at 200 mg/mL. […]

[6] = test system: A53T α-syn expressing HEK cells; test: Seeding potency in cells of α-syn aggregates formed in the presence of PD seeds and inhibitors; type: cell-based, human; conditions: three different PD brain extracted seeds
Excerpt: as §6
(§7) Human frozen brain tissues were obtained from UCLA Brain Tumor Translational Resource (BTTR). Sarkosyl insoluble protein was extracted using previously described protocols. Briefly, frozen tissue was homogenized in ice cold PBS using a dounce homogenizer at 200 mg/mL. The homogenate was then diluted in buffer A (10 mM Tris 7.4, 800 mM NaCl, 1 mM EGTA, 10% Sucrose) to 50 mg/mL in total volume of 1 mL and centrifuged at 20,700 g for 20 min at 4° C. The supernatant was collected in an ultracentrifuge tube and pellet was resuspended in 0.5 mL buffer A followed by centrifugation at 20,700 g for 20 mins at 4° C. The supernatants pooled together. 150 μl 10% sarkosyl (w/v) in Millipore water was then added and incubated for 1 h at room temperature on flat rotating shaker at 700 rpm. The solution was then centrifuged at 100,000 g for 1 h at 4° C. using SW 55 Rotor (Beckman Coulter). The supernatanat was discarded and pellet was washed with 5 mL Buffer A and centrifuged at 100,000 g for 20 mins at 4° C. The pellet was resuspended in 100 μl 50 mM Tris Ph 7.4
as §3, §4

[7] = test system: WT α-syn expressing HEK cells; test: as above; type: cell-based, human; conditions: three different PD brain extracted seeds
Excerpt: as §6, §7, §3, §4

WT YFP-α-syn HEK cells = test: PD filament seeded α-syn fibrils transfected along with inhibitors; type: cell-based, human; conditions: two different PD filaments; for seeding by PD filament seeded α-syn fibrils (puncta formation): fluorescence measured up to 6 days
Experimental: We tested the efficacy of the inhibitors in preventing seeding by PD fibrils in cell culture. α-syn aggregates formed in the presence of PD fibrils were transfected in WT HEK cells along with the different inhibitors (FIG. 7A).
as §7
10,000 cells in 90 μL media were plated in 96 well black wall plate (Cat #3660) and allowed to adhere overnight. α-syn was transfected at a final monomer concentration of 125 nM. Lipofectamine 2000 was diluted in OptiMEM media (2.5+17.5 μL) and incubated at room temperature for 5 mins. […]
as §4, with “Same settings were used to analyze wells of one plate at all days.” left out

[8] = α-syn aggregated in presence of inhibitor

Substance	toxicity compared with NACore (PC12 cells)	seeding competence of α-syn aggregated in presence of peptide (particles/puncta per well) [1]	seeding competence of α-syn aggregated in presence of peptide (particles/puncta per well) [2]	seeding capacity of α-syn fibrils co-transfected with peptide (particles per well normalized to buffer) [3]	concentrations at which seeding was reduced [3]	seeding capacity of α-syn fibrils co-transfected with peptide (particles per well normalized to buffer) [4]	concentrations at which seeding was reduced [4]	inhibition of α-syn aggregation seeded by PD extracted seeds (ThT fluorescence) [5]	duration of reduction in seeding [1, 8]	duration of reduction in seeding [2, 8]	duration of reduction of seeding ([4]; single administration, co-transfection)	seeding potency of α-syn aggregates formed in presence of PD seeds and inhibitor (puncta formation) [6]	seeding potency of α-syn aggregates formed in presence of PD seeds and inhibitor (puncta formation) [7]	seeding by PD filament seeded α-syn fibrils (puncta formation) (WT YFP-α-syn HEK cells)	concentrations at which seeding by PD filament seeded fibrils was prevented/reduced (WT YFP-α-syn HEK cells)
AVVTGVTAV [SubNACore, AVVTGVTAV]	not as toxic														
GAVVWGVTAVKKGRKKRRQRRRPQ (TAT tag) [Inhibitor S62]		not seeding competent; also recorded: seeding incompetent	not seeding competent; also recorded: seeding incompetent	reduce seeding capacity; also recorded: effective	12.5 µM and 6.25 µM	reduce seeding capacity; also recorded: effective	12.5 µM and 6.25 µM	effective against all seeds that were tested; also recorded: efficacy against all seeds							
GAVVWGVTAVKKKKK (C-terminal poly-lysine tag) [Inhibitor S37, W mutation at Thr72 and poly-lysine tag at the C-terminus]		not seeding competent; also recorded: significant reduction in seeding	not seeding competent; also recorded: significant reduction in seeding	reduce seeding capacity; also recorded: significant reduction in seeding	12.5 µM and 6.25 µM	reduce seeding capacity; also recorded: significant reduction in seeding	12.5 µM and 6.25 µM	marginal reduction in ThT fluorescence	up to 2 days	up to 2 days	up to 2 days	not effective in reducing the seeding potency of aggregates	not effective in reducing the seeding potency of aggregates	prevented seeding; also recorded: prevented puncta formation	
YGRKKRRQRRRAVVT{N-me-Gly}VTAVAE [Inhibitor S71]		not seeding competent; also recorded: reduce the seeding potency of the aggregates	not seeding competent; also recorded: reduce the seeding potency of the aggregates	reduce seeding capacity; also recorded: effective	1.25 µM	reduce seeding capacity; also recorded: effective	1.25 µM	effective against seeds B and D; also recorded: efficacy against all seeds				effective against all three seeds; also recorded: did not induce puncta formation	effective against all three seeds; also recorded: did not induce puncta formation	reduced seeding; also recorded: prevented seeding	6.25 µM
